Measured values: patent US5574026A, “Methods for inhibiting angiogenesis proliferation of endothelial or tumor cells and tumor growth” (American Cyanamid Company, priority 1994, dated 1996)
Values after ≈ are worked out from the molar mass of the structure shown. Counter-ions that a name gives are not always drawn.

What was measured:
Format in all cases: cell-based
[1] = system: Adult Bovine Aortic Endothelial (ABAE) cell line; assay: Antiproliferative activity in Adult Bovine Aortic Endothelial (ABAE) cell line, PROTOCOL 2 (48 h, sulforhodamine B); settings: Bos taurus, ABAE cells
Method: The antiproliferative activity of the compounds of Formula I in an Adult Bovine Aortic Endothelial (ABAE) cell line and in Human Tumor cells lines is evaluated in three similar assays that measure growth inhibition. The assays are identified as follows: PROTOCOLS 1, 2, and 3 are described in greater detail hereinbelow. In general, according to PROTOCOLS 1 and 2, the target ABAE and/or Human Tumor cells are exposed to the compounds of Formula I for 48 hours. PROTOCOL 3 exposes ABAE cells to the compounds for 4 days. A detailed description of the Protocols is as follows: All cell lines are maintained in log phase in RPMI 1640 media, supplemented with 5% fetal calf serum, penicillin/streptomycin and 2 mM L-glutamine. Cultures are renewed after 20 passages with cells from a fresh stock of batch-frozen early passage cells. Cell lines are routinely checked for mycoplasma contamination (Genprobe). In a laminar flow hood, cells (1-5×10^4) are plated into 96-well microtiter plates in a volume of 0.1 ml/well with a bulk microtiter dispenser (Denley). […] At this concentration, dimethylsulfoxide has no effect on cell growth. Compounds are added using a Tomtec dispenser which simultaneously dispenses from one 96-well plate, containing the drug dilutions, to the plates containing the cells. […] The number of cells on the plate are quantitated using a protein dye-binding assay (Monks et al., 1991). […] The optical densities are read from an automatic spectrophotometric plate reader (Dynatech) directly to a main frame computer (VAX 8600). PROTOCOL 2 Antiproliferative Activity in Human Tumor and Adult Bovine Aortic Endothelial Cell Lines (ABAE) The antiproliferative activity of the compounds of Formula I is evaluated in a panel comprised of human tumor cell lines as listed in Protocol 1 as well as an adult bovine aortic endothelial cell line (ABAE). […] Table 1 presents the results depicting the antiproliferative activity of the compounds of Formula I against an ABAE cell line, as evaluated by PROTOCOL 2 and PROTOCOL 3. […]

A2780S = assay: Antiproliferative activity in human tumor cell lines, PROTOCOL 1 and PROTOCOL 2; settings: ovarian tumor cell line A2780S, 48 hours, read-out: IC50
Method: (§1) The assays are identified as follows: PROTOCOLS 1, 2, and 3 are described in greater detail hereinbelow. In general, according to PROTOCOLS 1 and 2, the target ABAE and/or Human Tumor cells are exposed to the compounds of Formula I for 48 hours. PROTOCOL 3 exposes ABAE cells to the compounds for 4 days. A detailed description of the Protocols is as follows: Antiproliferative Activity in Human Tumor Cell Lines The antiproliferative activity of the compounds of Formula I of the present invention is evaluated in a panel comprised of human tumor cell lines. […] Cultures are renewed after 20 passages with cells from a fresh stock of batch-frozen early passage cells. Cell lines are routinely checked for mycoplasma contamination (Genprobe). In a laminar flow hood, cells (1-5×10^4) are plated into 96-well microtiter plates in a volume of 0.1 ml/well with a bulk microtiter dispenser (Denley). […] Compounds are added using a Tomtec dispenser which simultaneously dispenses from one 96-well plate, containing the drug dilutions, to the plates containing the cells. After two days of continuous drug exposure, 50% cold trichloroacetic acid (TCA) is added to 10% final concentration to fix the cells, and after 60 minutes at 4° C., the TCA is aspirated and the plates are washed 5 times with deionized water using a microtiter plate washer. […] A 0.4% solution of the dye, sulforhodamine B, in glacial acetic acid is added to the plates, and the plates are washed 5 times with 1% glacial acetic acid using the automatic plate washed. The bound stain is solubilized with 0.1 ml of 10 mMTris base. The optical densities are read from an automatic spectrophotometric plate reader (Dynatech) directly to a main frame computer (VAX 8600). Positive controls, that include standard chemotherapeutic drugs (i.e., adriamycin, cisplatin, etc.), are included in every experiment. Background optical density measurements (complete media--cells, and complete media+drug-cells) are automatically subtracted from the appropriate control and test wells. Mean values and standard errors are determined from duplicate wells. A measure is also made of the optical density at time when the drugs are added. The number of cells after treatment (P), as % of control, is calculated for every concentration of drug, as follows: [formula] wherein: T is optical density measurement for treated cells after 48 hours; C is optical density measurement for untreated cells after 48 hours; Co is optical density measurement for cells at the time of drug addition. IC50 of Growth inhibition is calculated from the sets of P values using the RS-1 data package (BBN Software). Antiproliferative Activity in Human Tumor and Adult Bovine Aortic Endothelial Cell Lines (ABAE) The antiproliferative activity of the compounds of Formula I is evaluated in a panel comprised of human tumor cell lines as listed in Protocol 1 as well as an adult bovine aortic endothelial cell line (ABAE). This assay is a modification of PROTOCOL 1.

HTB 161 = assay: as above; settings: HTB 161, 48 hours
Method: as §1

Row | SMILES | IC50 [1] | IC50 (A2780S) | IC50 (HTB 161)
1 | CN(C)[C@@H]1C(O)=C(C(N)=O)C(=O)[C@@]2(O)C(O)=C3C(=O)c4c(O)ccc(Br)c4CC3CC12 (stereo partly drawn) [Example 8, [4S-(4α,12aα)]-7-Bromo-4-(dimethylamino)-1,4,4a,5,5a,-6,11,12a-octahydro-3,10,12,12a-tetrahydroxy-1,11-dioxo-2-naphthacenecarboxamide sulfate] | 2.4 µg/mL | 0.6 µg/mL | 0.6 µg/mL
2 | CN(C)[C@@H]1C(O)=C(C(N)=O)C(=O)[C@@]2(O)C(O)=C3C(=O)c4c(O)ccc(I)c4CC3CC12 (stereo partly drawn) [Example 10, [4S-(4α,12aα)]-4-(Dimethylamino)-4,4,4a,5,5a,6,11,12a-octahydro-3,10,12,12a-tetrahydroxy-7-iodo-1,11-dioxo-2-naphthacenecarboxamide] | 5 µg/mL (≈ 9.25 µM) | 0.7 µg/mL (≈ 1.3 µM) | 0.7 µg/mL (≈ 1.3 µM)
3 | CN(C)c1ccc(O)c2c1C[C@H]1C[C@H]3[C@H](N(C)C)C(O)=C(C(N)=O)C(=O)[C@@]3(O)C(O)=C1C2=O [Minocycline, reference compound] | > 20 µg/mL | – | –
